Values of other authors in paper PMC12691659 (Antimicrobial Agents and Chemotherapy, 2025).

What was measured:
[1] = in vivo, cited from earlier work
Excerpt: Its retrospective, uncontrolled design limits the ability to establish causal relationships. The adherence to co-prescribing treatments could not be verified. […] Overexposure definition was based on Cmin rather than AUC, because the latter is still not widely available in routine TDM.

[2] = human, in vivo; cited from earlier work
[3] = in vivo; cited from earlier work
[4] = human, in vivo; cited from earlier work; remark: listed apart in the source
[5] = test system: P-glycoprotein (P-gp); conditions: cited from earlier work

CCCCCCCCCC(=O)N[C@@H](Cc1c[nH]c2ccccc12)C(=O)N[C@H](CC(N)=O)C(=O)N[C@@H](CC(=O)O)C(=O)N[C@@H]1C(=O)NCC(=O)N[C@@H](CCCN)C(=O)N[C@@H](CC(=O)O)C(=O)N[C@H](C)C(=O)N[C@@H](CC(=O)O)C(=O)NCC(=O)N[C@H](CO)C(=O)N[C@@H]([C@H](C)CC(=O)O)C(=O)N[C@@H](CC(=O)c2ccccc2N)C(=O)O[C@@H]1C [daptomycin]
Cmin associated with an increased risk of CPK elevation ([1]; 6 mg/kg): > 24300 ng/mL | AUC associated with increased risk of adverse events [1]: > 939 µg·h/mL | Cmin associated with increased risk of adverse events [1]: > 24000 ng/mL | CLDAP, population final estimate [2]: 0.365 L/h | Q, population final estimate [2]: 0.752 L/h | V1, population final estimate [2]: 3.59 L | V2, population final estimate [2]: 4.71 L | γCL [2]: 0.193 | γV1 [2]: 0.24 | θ1 (CL, CLCR) [2]: 0.43 | θ2 (CL, Sex) [2]: 0.232 | θ3 (V1, Age) [2]: 0.263 | θ4 (V1, WT) [2]: 0.603 | θ6 (V1, Sex) [2]: 0.117 | ωCL [2]: 0.196 | ωQ [2]: 1.13 | ωV1 [2]: 0.123 | ωV2 [2]: 0.29 | Dose excreted unchanged by the kidneys [3]: 78% | Increase of AUC in morbidly obese subjects [4]: 60% | Increase of Cmax in morbidly obese subjects [4]: 60%

CCCCC1=NC2(CCCC2)C(=O)N1Cc1ccc(-c2ccccc2-c2nnn[nH]2)cc1 [irbesartan]
Dose eliminated unchanged in the urine [3]: Up to 20% | Inhibition of the transport of digoxin, a known P-gp substrate [5]: inhibit the transport of digoxin | P-glycoprotein substrate status ([5]; renal efflux transporter): substrate of P-glycoprotein

CCCc1nc2c(C)cc(-c3nc4ccccc4n3C)cc2n1Cc1ccc(-c2ccccc2C(=O)O)cc1 [telmisartan]
Inhibition of the transport of digoxin, a known P-gp substrate [5]: inhibit the transport of digoxin
